# Test results as given in patent US6344474B1, “Use of central cannabinoid receptor antagonists for regulating appetence” (Sanofi-Synthelabo, priority 1997, dated 2002).
# Tests used:
# Male Sprague-Dawley rats = assay: Effect of SR 141716 A on the intake of a sucrose solution in rats; format: in vivo, rat; conditions: for Consumption of sucrose solution in g, 1 hour / Consumption of sucrose solution in g, 2 hours / Consumption of sucrose solution in g, 3 hours / Consumption of sucrose solution in g, 4 hours: 5% sucrose solution; for Consumption of sucrose solution in g, 1 hour: T0+1 hour; for Consumption of sucrose solution in g, 2 hours: T0+2 hours; for Consumption of sucrose solution in g, 3 hours: T0+3 hours; for Consumption of sucrose solution in g, 4 hours: T0+4 hours
# Procedure: TEST No. 1: Effect of SR 141716 A on the intake of a sucrose solution in rats
# The experiment is performed according to W. C. Lynch et al., Physiol. Behav., 1993, 54, 877-880.
# Male Sprague-Dawley rats weighing 190 to 210 g are under a normal light cycle (from 7 am to 7 pm) and receive water and food ad libitum.
# For 6 days, between 11 am and 3 pm, the food and the water bottles are withdrawn and the rats are given a 5% sucrose solution to drink.
# Rats drinking less than 3 g of sucrose solution are eliminated.
# On the seventh day the test is carried out according to the following procedure:
# 9 am: withdrawal of food,
# 10 am: oral administration of SR 141716 A,
# 11 am=T0: introduction of bottles containing a weighed sucrose solution , T0+1 hour, T0+2 hours, T0+3 hours, T0+4 hours: measurement of the sucrose consumption by weighing of the bottles.
# Male C 57 BL 6 mice = assay: Effect of SR 141716 A on the consumption of an alcohol solution in mice; format: in vivo, mouse; conditions: 6 hours; for Amount of alcohol consumed in g on D4: 10% alcohol solution
# Procedure: TEST No. 2: Effect of SR 141716 A on the consumption of an alcohol solution in mice
# Male C 57 BL 6 mice (Iffa-Credo) are isolated on the day of their arrival in an animal housing under a reverse cycle (night from 10 am to 10 pm) with 2 bottles filled with water. After 1 week, one of the bottles of water is replaced with a bottle filled with a 10% alcohol solution for 6 hours of the test. Each day, 30 minutes before the bottle of alcohol is introduced, the mice are treated subcutaneously with SR 141716 A. The amounts of alcohol and water consumed are measured after 6 hours. The test is repeated for 4 days.
structure (smiles),measurement,setting,value
"Cc1c(C(=O)NN2CCCCC2)nn(-c2ccc(Cl)cc2Cl)c1-c1ccc(Cl)cc1 [SR 141716 A, N-piperidino-5-(4-chlorophenyl)-1-(2,4-dichlorophenyl)-4-methylpyrazole-3-carboxamide]","Consumption of sucrose solution in g, 1 hour",Male Sprague-Dawley rats; 0.3 mg/kg po,5.18 g
same,"Consumption of sucrose solution in g, 2 hours",Male Sprague-Dawley rats; 0.3 mg/kg po,9.18 g
same,"Consumption of sucrose solution in g, 3 hours",Male Sprague-Dawley rats; 0.3 mg/kg po,12.49 g
same,"Consumption of sucrose solution in g, 4 hours",Male Sprague-Dawley rats; 0.3 mg/kg po,16.10 g
same,"Consumption of sucrose solution in g, 1 hour",Male Sprague-Dawley rats; 1 mg/kg po,3.27 ± g
same,"Consumption of sucrose solution in g, 2 hours",Male Sprague-Dawley rats; 1 mg/kg po,3.61 ± g
same,"Consumption of sucrose solution in g, 3 hours",Male Sprague-Dawley rats; 1 mg/kg po,5.65 ± g
same,"Consumption of sucrose solution in g, 4 hours",Male Sprague-Dawley rats; 1 mg/kg po,7.43 ± g
same,"Consumption of sucrose solution in g, 1 hour",Male Sprague-Dawley rats; 3 mg/kg po,2.95 ± g
same,"Consumption of sucrose solution in g, 2 hours",Male Sprague-Dawley rats; 3 mg/kg po,5.41 ± g
same,"Consumption of sucrose solution in g, 3 hours",Male Sprague-Dawley rats; 3 mg/kg po,6.96 ± g
same,"Consumption of sucrose solution in g, 4 hours",Male Sprague-Dawley rats; 3 mg/kg po,8.58 ± g
same,Dose at or above which consumption of aqueous sugar solution is very considerably reduced,Male Sprague-Dawley rats; oral administration,≥ 0.3 mg/kg
same,Amount of alcohol consumed in g on D4,Male C 57 BL 6 mice; 0.1 mg/kg sc,1.4 ± 0.2 g
same,Amount of water consumed,Male C 57 BL 6 mice; 0.1 mg/kg sc,1.1 ± 0.3 g
same,Amount of alcohol consumed in g on D4,Male C 57 BL 6 mice; 0.3 mg/kg sc,1.3 ± 0.2 g
same,Amount of water consumed,Male C 57 BL 6 mice; 0.3 mg/kg sc,1.1 ± 0.3 g
same,Amount of alcohol consumed in g on D4,Male C 57 BL 6 mice; 1 mg/kg sc,1.1 ± 0.2 g
same,Amount of water consumed,Male C 57 BL 6 mice; 1 mg/kg sc,1.3 ± 0.1 g
same,Amount of alcohol consumed in g on D4,"Male C 57 BL 6 mice; 3 mg/kg sc, 3 mg/kg",1.0 ± 0.2 g
same,Amount of water consumed,"Male C 57 BL 6 mice; 3 mg/kg sc, 3 mg/kg",1.6 ± 0.3 g
